Data: PubChem BioAssay AID288 (DTP/NCI, 2004)
Where “and” joins values, the source holds several entries; their conditions need not be identical. Identical values can stand only once. Inconclusive results are not listed.

Test system: BDF1 mice, M5076 sarcoma s.c., survival/tumor T/C
Test: NCI In Vivo Anticancer Drug Screen. Data for tumor model Sarcoma M5076 (subcutaneous) in B6D2F1 (BDF1) mice
Procedure: The antitumor activity of compounds was measured in mice bearing transplantable tumors. Survival or tumor size were measured and the results are expressed as the measurement made in the treated group (T) divided by the measurement made in the vehicle treated control group (C). The tumor model used in this assay is Sarcoma M5076 (subcutaneous) in B6D2F1 (BDF1) mice

In the case of `CN(C)CCCNc1c2ccccc2nc2cccc([N+](=O)[O-])c12`, the T/C (endpoint: mean tumor weight, dose: 2.0 micrograms/kg/injection, schedule: Q02DX011 (ip), vehicle: saline, higher = larger tumour) is reported as 106 % of control, the T/C (endpoint: mean tumor weight, dose: 4.0 micrograms/kg/injection, schedule: Q02DX011 (ip), vehicle: saline, higher = larger tumour) is reported as 70 % of control and the T/C (endpoint: mean tumor weight, dose: 8.0 micrograms/kg/injection, schedule: Q02DX011 (ip), vehicle: saline, higher = larger tumour) is reported as 97 % of control. For the same compound, the T/C (endpoint: mean tumor weight, dose: 16.0 micrograms/kg/injection, schedule: Q02DX011 (ip), vehicle: saline, higher = larger tumour) was 92 % of control, the T/C (endpoint: mean tumor weight, dose: 32.0 micrograms/kg/injection, schedule: Q02DX011 (ip), vehicle: saline, higher = larger tumour) was 88 % of control and the T/C (endpoint: mean tumor weight, dose: 64.0 micrograms/kg/injection, schedule: Q02DX011 (ip), vehicle: saline, higher = larger tumour) was 65 % of control. For the same compound, the T/C (endpoint: median tumor weight (est.), dose: 2.0 micrograms/kg/injection, schedule: Q02DX011 (ip), vehicle: saline, higher = larger tumour) was 112 % of control, the T/C (endpoint: median tumor weight (est.), dose: 4.0 micrograms/kg/injection, schedule: Q02DX011 (ip), vehicle: saline, higher = larger tumour) was 90 % of control and the T/C (endpoint: median tumor weight (est.), dose: 8.0 micrograms/kg/injection, schedule: Q02DX011 (ip), vehicle: saline, higher = larger tumour) was 95 % of control. The T/C (endpoint: median tumor weight (est.), dose: 32.0 micrograms/kg/injection, schedule: Q02DX011 (ip), vehicle: saline, higher = larger tumour) was 100 % of control and the T/C (endpoint: median tumor weight (est.), dose: 64.0 micrograms/kg/injection, schedule: Q02DX011 (ip), vehicle: saline, higher = larger tumour) was 62 % of control.
For `Cc1nc(N)nc(N)c1-c1ccc(Cl)c(Cl)c1`, the T/C (endpoint: median survival time, dose: 1.5 mg/kg/injection, schedule: Q01DX009 (ip), vehicle: normal media, higher = longer survival) was 105 % of control.
With `COc1cccc2c1C(=O)c1c(O)c3c(c(O)c1C2=O)C[C@@](O)(C(C)=O)C[C@@H]3OC1CC(N)C(O)C(C)O1` (stereo not given in full) the T/C (endpoint: median survival time, dose: 0.4 mg/kg/injection, schedule: Q02DX030 (ip), vehicle: saline, higher = longer survival) was 95 % of control, the T/C (endpoint: median survival time, dose: 0.4 mg/kg/injection, schedule: Q04DX006 (ip), vehicle: saline, higher = longer survival) was 106 % of control and the T/C (endpoint: median survival time, dose: 0.8 mg/kg/injection, schedule: Q02DX030 (ip), vehicle: saline, higher = longer survival) was 122 % of control. The T/C (endpoint: median survival time, dose: 1.6 mg/kg/injection, schedule: Q02DX030 (ip), vehicle: saline, higher = longer survival) was 104 % of control.
With `C1CN1c1nc(N2CC2)nc(N2CC2)n1` the T/C (endpoint: mean tumor weight, dose: 0.1 mg/kg/injection, schedule: Q02DX011 (ip), vehicle: Klucel (hydroxypropylcellulose) (HPC), higher = larger tumour) was 76 % of control, the T/C (endpoint: mean tumor weight, dose: 0.2 mg/kg/injection, schedule: Q02DX011 (ip), vehicle: Klucel (hydroxypropylcellulose) (HPC), higher = larger tumour) was 25 % of control and the T/C (endpoint: mean tumor weight, dose: 0.4 mg/kg/injection, schedule: Q02DX011 (ip), vehicle: Klucel (hydroxypropylcellulose) (HPC), higher = larger tumour) was 8 % of control. The T/C (endpoint: median survival time, dose: 0.06 mg/kg/injection, schedule: Q02DX011 (ip), vehicle: saline, higher = longer survival) was 100 % of control, the T/C (endpoint: median survival time, dose: 0.13 mg/kg/injection, schedule: Q02DX011 (ip), vehicle: saline, higher = longer survival) was 113 % of control and the T/C (endpoint: median survival time, dose: 0.25 mg/kg/injection, schedule: Q02DX011 (ip), vehicle: saline, higher = longer survival) was 100 % of control. For the same compound, the T/C (endpoint: median survival time, dose: 1.0 mg/kg/injection, schedule: Q02DX011 (ip), vehicle: saline, higher = longer survival) was 191 % of control.
`CSC1SCC2C(=O)N(C)C(C(C)C)C(=O)OCC(NC(=O)c3cnc4ccccc4n3)C(=O)NC(C)C(=O)N(C)C1C(=O)N(C)C(C(C)C)C(=O)OCC(NC(=O)c1cnc3ccccc3n1)C(=O)NC(C)C(=O)N2C` (stereo not given) was tested, and the T/C (endpoint: median survival time, dose: 0.06 mg/kg/injection, schedule: Q04DX003 (ip), vehicle: saline with Tween-80, higher = longer survival) was 96 % of control and the T/C (endpoint: median survival time, dose: 0.12 mg/kg/injection, schedule: Q04DX003 (ip), vehicle: saline with Tween-80, higher = longer survival) was 91 % of control.
With `CC/C(=C(/CC)c1ccc(O)cc1)c1ccc(O)cc1` the T/C (endpoint: mean tumor weight, dose: 7.5 mg/kg/injection, schedule: Q02DX011 (ip), vehicle: Klucel (hydroxypropylcellulose) (HPC), higher = larger tumour) was 114 % of control, the T/C (endpoint: mean tumor weight, dose: 15.0 mg/kg/injection, schedule: Q02DX011 (ip), vehicle: Klucel (hydroxypropylcellulose) (HPC), higher = larger tumour) was 62 % of control and 87 % of control and the T/C (endpoint: mean tumor weight, dose: 60.0 mg/kg/injection, schedule: Q02DX011 (ip), vehicle: Klucel (hydroxypropylcellulose) (HPC), higher = larger tumour) was 55 % of control. For the same compound, the T/C (endpoint: median tumor weight (est.), dose: 15.0 mg/kg/injection, schedule: Q02DX011 (ip), vehicle: Klucel (hydroxypropylcellulose) (HPC), higher = larger tumour) was 88 % of control, the T/C (endpoint: median tumor weight (est.), dose: 30.0 mg/kg/injection, schedule: Q02DX011 (ip), vehicle: Klucel (hydroxypropylcellulose) (HPC), higher = larger tumour) was 66 % of control and the T/C (endpoint: median tumor weight (est.), dose: 60.0 mg/kg/injection, schedule: Q02DX011 (ip), vehicle: Klucel (hydroxypropylcellulose) (HPC), higher = larger tumour) was 28 % of control.
`COc1ccc(/C=N/OC(=S)NC2CCCCC2)cc1OC` was tested, and the T/C (endpoint: median survival time, dose: 50.0 mg/kg/injection, schedule: Q01DX009 (ip), vehicle: saline with Tween-80, higher = longer survival) was 102 % of control, the T/C (endpoint: median survival time, dose: 100.0 mg/kg/injection, schedule: Q01DX009 (ip), vehicle: saline with Tween-80, higher = longer survival) was 86 % of control and the T/C (endpoint: median survival time, dose: 200.0 mg/kg/injection, schedule: Q01DX009 (ip), vehicle: saline with Tween-80, higher = longer survival) was 92 % of control.
For `COc1cc(C(C)(C)C)cc(OC)c1C(O)(c1c(OC)cc(C(C)(C)C)cc1OC)c1c(OC)cc(C(C)(C)C)cc1OC`, the T/C (endpoint: median survival time, dose: 50.0 mg/kg/injection, schedule: Q04DX003 (ip), vehicle: saline with Tween-80, higher = longer survival) was 95 % of control and the T/C (endpoint: median survival time, dose: 100.0 mg/kg/injection, schedule: Q04DX003 (ip), vehicle: saline with Tween-80, higher = longer survival) was 102 % of control.
`COC(=O)[C@@]12OC[C@]34[C@H]([C@@H](O)[C@@H]1O)[C@@]1(C)CC(=O)C(O)=C(C)[C@@H]1C[C@H]3OC(=O)[C@H](OC(=O)/C=C(\C)C(C)C)[C@@H]24` was tested, and the T/C (endpoint: mean tumor weight, dose: 0.5 mg/kg/injection, schedule: Q02DX011 (ip), vehicle: saline with Tween-80, higher = larger tumour) was 114 % of control, the T/C (endpoint: mean tumor weight, dose: 1.0 mg/kg/injection, schedule: Q02DX011 (ip), vehicle: saline with Tween-80, higher = larger tumour) was 94 % of control and the T/C (endpoint: mean tumor weight, dose: 2.0 mg/kg/injection, schedule: Q02DX011 (ip), vehicle: saline with Tween-80, higher = larger tumour) was 26 % of control.
For `O=NN(CCCl)C(=O)NCCCl`, the T/C (endpoint: median survival time, dose: 1.35 mg/kg/injection, schedule: Q04DX009 (ip), vehicle: saline with Tween-80, higher = longer survival) was 108 % of control, the T/C (endpoint: median survival time, dose: 2.7 mg/kg/injection, schedule: Q02DX033 (ip), vehicle: saline, higher = longer survival) was 233 % of control and the T/C (endpoint: median survival time, dose: 2.7 mg/kg/injection, schedule: Q04DX009 (ip), vehicle: saline with Tween-80, higher = longer survival) was 121 % of control. For the same compound, the T/C (endpoint: median survival time, dose: 5.4 mg/kg/injection, schedule: Q02DX033 (ip), vehicle: saline, higher = longer survival) was 171 % of control, the T/C (endpoint: median survival time, dose: 5.4 mg/kg/injection, schedule: Q04DX009 (ip), vehicle: saline with Tween-80, higher = longer survival) was 254 % of control and the T/C (endpoint: median survival time, dose: 6.0 mg/kg/injection, schedule: Q01DX009 (ip), vehicle: saline + alcohol, higher = longer survival) was 159 % of control. For the same compound, the T/C (endpoint: median survival time, dose: 10.8 mg/kg/injection, schedule: Q04DX009 (ip), vehicle: saline with Tween-80, higher = longer survival) was 238 % of control and the T/C (endpoint: median tumor weight (est.), dose: 1.5 mg/kg/injection, schedule: Q01DX009 (ip), vehicle: saline + alcohol, higher = larger tumour) was 25 % of control.
For `Cc1[nH]c(=O)[nH]c(=O)c1N(CCF)CCCl`, the T/C (endpoint: median survival time, dose: 4.0 mg/kg/injection, schedule: Q01DX009 (ip), vehicle: saline with Tween-80, higher = longer survival) was 104 % of control, the T/C (endpoint: median survival time, dose: 8.0 mg/kg/injection, schedule: Q01DX009 (ip), vehicle: saline with Tween-80, higher = longer survival) was 120 % of control and the T/C (endpoint: median tumor weight (est.), dose: 4.0 mg/kg/injection, schedule: Q01DX009 (ip), vehicle: saline with Tween-80, higher = larger tumour) was 101 % of control. For the same compound, the T/C (endpoint: median tumor weight (est.), dose: 8.0 mg/kg/injection, schedule: Q01DX009 (ip), vehicle: saline with Tween-80, higher = larger tumour) was 47 % of control and 57 % of control and the T/C (endpoint: median tumor weight (est.), dose: 16.0 mg/kg/injection, schedule: Q01DX009 (ip), vehicle: saline with Tween-80, higher = larger tumour) was 8 % of control and 17 % of control.
For `CC1(C)OCC(CO)(Nc2nc(N3CC3)nc(N3CC3)n2)CO1`, the T/C (endpoint: median survival time, dose: 0.78 mg/kg/injection, schedule: Q02DX011 (ip), vehicle: saline, higher = longer survival) was 98 % of control, the T/C (endpoint: median survival time, dose: 1.56 mg/kg/injection, schedule: Q02DX011 (ip), vehicle: saline, higher = longer survival) was 110 % of control and the T/C (endpoint: median survival time, dose: 3.12 mg/kg/injection, schedule: Q02DX011 (ip), vehicle: saline, higher = longer survival) was 164 % of control.
